Patent publication US12077503B2, “Substituted cyclic amides and their use as herbicides” (FMC CORPORATION, priority 2015, dated 2024)

Key:
Format in all cases: in vivo
[1] = system: Kochia (Kochia scoparia); test: Test A preemergence; settings: Bassia scoparia, pre-emergence, 240 h, preemergence, 0 to 100 scale where 0 is no effect and 100 is complete control, read-out: Kochia plant response rating
Outline: (§1)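 Compounds were formulated in a non-phytotoxic solvent mixture with surfactant and applied as a preemergence directed soil spray after seeding, or sprayed postemergence over plants 2 to 10 cm tall at the one- to two-leaf stage. Evaluation after about 10 d compared treated with untreated controls, using a scale from 0 (no effect) to 100 (complete control).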

[2] = system: barnyardgrass (Echinochloa crus-galli); test: Test A preemergence; settings: Echinochloa crus-galli, pre-emergence, 240 h, preemergence, 0 to 100 scale where 0 is no effect and 100 is complete control, read-out: Barnyardgrass plant response rating
Outline: as §1

[3] = system: giant foxtail (Setaria faberii); test: Test A preemergence; settings: Setaria faberi, pre-emergence, 240 h, preemergence, 0 to 100 scale where 0 is no effect and 100 is complete control, read-out: Foxtail, Giant plant response rating
Outline: as §1

[4] = system: pigweed (Amaranthus retroflexus); test: Test A preemergence; settings: Amaranthus retroflexus, pre-emergence, 240 h, preemergence, 0 to 100 scale where 0 is no effect and 100 is complete control, read-out: Pigweed plant response rating
[5] = system: ragweed (common ragweed, Ambrosia elatior); test: Test A preemergence; settings: Ambrosia artemisiifolia, pre-emergence, 240 h, preemergence, 0 to 100 scale where 0 is no effect and 100 is complete control, read-out: Ragweed plant response rating
Outline: as §1

[6] = system: ryegrass, Italian (Italian ryegrass, Lolium multiflorum); test: Test A preemergence; settings: Lolium multiflorum, pre-emergence, 240 h, preemergence, 0 to 100 scale where 0 is no effect and 100 is complete control, read-out: Ryegrass, Italian plant response rating
Outline: as §1

[7] = system: Galium (catchweed bedstraw, Galium aparine); test: Test A postemergence; settings: Galium, post-emergence, 240 h, postemergence, read-out: Galium plant response rating
Outline: as §1

[8] = system: Kochia (Kochia scoparia); test: Test A postemergence; settings: Bassia scoparia, post-emergence, 240 h, postemergence, read-out: Kochia plant response rating
Outline: as §1

[9] = system: ragweed (common ragweed, Ambrosia elatior); test: Test A postemergence; settings: Ambrosia artemisiifolia, post-emergence, 240 h, postemergence
Outline: as §1

[10] = system: ryegrass, Italian (Italian ryegrass, Lolium multiflorum); test: Test A postemergence; settings: Lolium multiflorum, post-emergence, 240 h, postemergence
Outline: as §1

[11] = system: wheat (Triticum aestivum); test: Test A postemergence; settings: Triticum aestivum, post-emergence, 240 h, postemergence
Outline: as §1

[12] = system: barnyardgrass (Echinochloa crus-galli); test: Test B flooded paddy test; settings: Echinochloa crus-galli, 250 g ai/ha, Flood; 0 to 100 scale where 0 is no effect and 100 is complete control; read-out: Barnyardgrass plant response rating
Outline: (§2)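 Flooding to 3 cm over soil accompanied treatment, which consisted of adding compound to the standing water around 2-leaf plants; depth was then maintained. Visual assessment versus controls followed at 13 to 15 d (scale 0–100, 0 meaning no effect).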

[13] = system: ducksalad (Heteranthera limosa); test: Test B flooded paddy test; settings: Heteranthera limosa, 250 g ai/ha, Flood; 0 to 100 scale where 0 is no effect and 100 is complete control; read-out: Ducksalad plant response rating
Outline: as §2

[14] = system: rice (Oryra sativa); test: Test B flooded paddy test; settings: Oryza sativa, 250 g ai/ha, Flood; 0 to 100 scale where 0 is no effect and 100 is complete control; read-out: Rice plant response rating
Outline: as §2

[15] = system: sedge, umbrella (small-flower umbrella sedge, Cyperus difformis); test: Test B flooded paddy test; settings: Cyperus difformis, 250 g ai/ha, Flood; 0 to 100 scale where 0 is no effect and 100 is complete control; read-out: Sedge, Umbrella plant response rating
Outline: as §2

[16] = 125 g ai/ha, visual injury on 0 to 100 scale (0 no effect, 100 complete control), approx. 10 d
[17] = 500 g ai/ha, 0 to 100 scale, 0 is no effect, 100 is complete control

CN1C[C@H](c2ccc(C(F)(F)F)cc2)[C@@](F)(C(=O)Nc2cccc(F)c2F)C1=O (racemic) [Compound 1151]
pest or weed control at 125 g/ha ([1]; 125 g ai/ha, approx. 10 d): 70%
pest or weed control at 500 g/ha ([1]; 500 g ai/ha): 80%
pest or weed control at 125 g/ha ([2]; 125 g ai/ha, approx. 10 d): 90%
pest or weed control at 500 g/ha ([2]; 500 g ai/ha): 100%
pest or weed control at 125 g/ha ([3]; 125 g ai/ha, approx. 10 d): 100%
pest or weed control at 500 g/ha ([3]; 500 g ai/ha): 100%
pest or weed control at 125 g/ha ([4]; 125 g ai/ha, approx. 10 d): 80%
pest or weed control at 500 g/ha ([4]; 500 g ai/ha): 100%
pest or weed control at 125 g/ha ([5]; 125 g ai/ha, approx. 10 d): 0%
pest or weed control at 500 g/ha ([5]; 500 g ai/ha): 60%
pest or weed control at 125 g/ha ([6]; 125 g ai/ha, approx. 10 d): 70%
pest or weed control at 500 g/ha ([6]; 500 g ai/ha): 70%
pest or weed control at 125 g/ha [7, 16]: 20%
pest or weed control at 500 g/ha [7, 17]: 60%
pest or weed control at 125 g/ha [8, 16]: 30%
pest or weed control at 500 g/ha [8, 17]: 60%
pest or weed control at 125 g/ha ([9]; 125 g ai/ha, visual injury vs untreated controls after approx. 10 d, 0 = no effect, 100 = complete control, read-out: Ragweed plant response rating (0 to 100 scale)): 0%
pest or weed control at 500 g/ha ([9]; 500 g ai/ha, 0 to 100 scale, 0 is no effect, 100 is complete control, read-out: Ragweed plant response rating): 30%
pest or weed control at 125 g/ha ([10]; 125 g ai/ha, visual injury vs untreated controls after approx. 10 d, 0 = no effect, 100 = complete control, read-out: Ryegrass, Italian plant response rating (0 to 100 scale)): 30%
pest or weed control at 500 g/ha ([10]; 500 g ai/ha, 0 to 100 scale, 0 is no effect, 100 is complete control, read-out: Ryegrass, Italian plant response rating): 50%
plant injury at 125 g/ha ([11]; 125 g ai/ha, visual injury vs untreated controls after approx. 10 d, 0 = no effect, 100 = complete control, read-out: Wheat plant response rating (0 to 100 scale)): 40%
plant injury at 500 g/ha ([11]; 500 g ai/ha, 0 to 100 scale, 0 is no effect, 100 is complete control, read-out: Wheat plant response rating): 60%
pest or weed control at 250 g/ha [12]: 0%
pest or weed control at 250 g/ha [13]: 0%
pest or weed control at 250 g/ha [14]: 0%
pest or weed control at 250 g/ha [15]: 0%
